Patent publication US11464751B2, “Use of fluoroethylnormemantine for the prevention and treatment of anxiety” (REST THERAPEUTICS, priority 2017, dated 2022)

What was measured:
Format in all cases: in vivo, rat
naive rats (Wistar) [1] = assay: Forced swimming test; conditions: for Rat behavior over the period of time 1 to 6 minutes: frenetic movement / Rat behavior over the period of time 1 to 6 minutes: immobility (ies): second day, 30 min before; for Rat behavior over the period of time 1 to 6 minutes: immobility (ies): in s; for immobility time compared with control: all dose levels, particularly 10 mg/kg, p<0.001
Method: • the forced swimming test: This test has been used for a number of years with rats or mice to test the activity of antidepressants (F. Borsini, Psychopharmacology (1988) 94:147-160) and consists of placing the animal in a bowl filled with room-temperature water. After 15 minutes (pre-test session), the animal is taken out of the water and dried. Twenty-four hours later, the animal is again exposed to the previous conditions and the time of total immobility for a period of 5 minutes is recorded (test session). The animal is considered immobile when it performs only the movements necessary to keep its head out of the water. This immobility is easier to assess in rats than in mice, which have less explicit movements.
(§1) In the following examples, the effects of memantine, propranolol and fluoroethylnormemantine (FENM, the subject of the present invention) are studied in naive rats (Wistar) subjected to various tests related to depression or anxiety and then compared.
(§2) The test substances are administered to rats intraperitoneally in a volume of 5 ml/kg, 30 minutes before the behavioral tests are performed.
(§3) The injected solutions contain either of the molecules in the form of one of their salts, a hydrochloride (memantine·HCl and FENM·HCl) for the nitrogen derivatives and as such for propranolol, at the concentrations indicated below in a mixture of 95% (NaCl 0.9% ww in water)/5% ethanol. In each experiment, the dose per kilogram is referenced.
In the forced swimming test, rats (12 per group) are forced to swim in a tank filled with 23° C. water (10 minutes on the first day to allow for habituation to the medium and 6 minutes on the second day).
The behavior of the rats (stopping swimming, decreasing activity) is quantified by a video monitoring system.
The therapeutic solutions to be tested are administered on the second day 30 minutes before the experiment.

naive rats (Wistar) [2] = assay: Light-dark box test
Method: as §1, §2, §3
For each paradigm, and each solution tested, 12 rats are subjected to injection and behavioral testing. The control solution is a saline solution.
In this example the light-dark box test was used. As it is based on rodents' innate aversion to light, the increase in time spent in the lighted compartment is therefore considered to reflect a lower level of anxiety.
The box used for this test is divided into a white behavior with high-power illumination (600 lux) and a black behavior with a lid (about 5 lux). The number of entries and the time spent in the illuminated compartment (anxiety zone) are recorded for 10 minutes by a video monitoring system. In addition, the system makes it possible to differentiate the periods between 0 and 5 minutes and between 5 and 10 minutes.

naive rats (Wistar) [3] = assay: Pre-pulse inhibition (PPI) test, sensory filtering; conditions: for Percentage of pre-pulse inhibition, Average: average over first pulse intensities; for effect on PPI (schizophrenia-inducing effect): memantine 10 mg/kg (p<0.01), FENM even at high dose (20 mg/kg)
From the text: • Pre-pulse inhibition (PPI) test: One of the major problems of treatments targeting the central nervous system remains the achievement of the desired effect without the appearance of crippling psychological side effects, even exceeding the therapeutic benefit of the treatment. These effects are often significant (the rebound effect of benzodiazepines) or even paradoxical (the anxiety-producing effect of short-term serotonin reuptake inhibitors). In particular, they can induce a destabilization of sensory filtering and generate symptoms similar to schizophrenia.
(§4) Pre-impulse inhibition testing is based on the brain's ability to adapt to a moderate-intensity stimulus in order to limit the effect of the same high-intensity stimulus. In this test, the animals are placed in a soundproof cage and subjected either to a sound pulse of 120 decibels (dB) or to a sequence of 2 pulses spaced about 100 milliseconds apart, the second pulse being of fixed intensity of 120 dB and the first of variable intensity between 70 and 85 dB).
In animals with psychotic disorders of a schizophrenic nature, this inhibition is more or less eliminated.
as §1, §2, §3
as §4, with “the animals (12 per group) are placed” for “the animals are placed”, “being of a fixed intensity” for “being of fixed intensity”

[4] = 10 mg/kg i.p., first pulse 72 dB
[5] = 10 mg/kg i.p., first pulse 76 dB
[6] = 10 mg/kg i.p., first pulse 80 dB
[7] = 10 mg/kg i.p., first pulse 84 dB

SMILES	Rat behavior over the period of time 1 to 6 minutes: frenetic movement (naive rats (Wistar) [1]; 1 mg/kg i.p.)	Rat behavior over the period of time 1 to 6 minutes: immobility (ies) (naive rats (Wistar) [1]; 1 mg/kg i.p.)	Rat behavior over the period of time 1 to 6 minutes: frenetic movement (naive rats (Wistar) [1]; 3 mg/kg i.p.)	Rat behavior over the period of time 1 to 6 minutes: immobility (ies) (naive rats (Wistar) [1]; 3 mg/kg i.p.)	Rat behavior over the period of time 1 to 6 minutes: frenetic movement (naive rats (Wistar) [1]; 10 mg/kg i.p.)	Rat behavior over the period of time 1 to 6 minutes: immobility (ies) (naive rats (Wistar) [1]; 10 mg/kg i.p.)	immobility time compared with control (naive rats (Wistar) [1])	Time spent in the lighted compartment (naive rats (Wistar) [2]; 1 mg/kg i.p., 0-5 min)	Time spent in the lighted compartment (naive rats (Wistar) [2]; 1 mg/kg i.p., 0-10 min)	Time spent in the lighted compartment (naive rats (Wistar) [2]; 1 mg/kg i.p., 5-10 min)	Time spent in the lighted compartment (naive rats (Wistar) [2]; 3 mg/kg i.p., 0-5 min)	Time spent in the lighted compartment (naive rats (Wistar) [2]; 3 mg/kg i.p., 0-10 min)	Time spent in the lighted compartment (naive rats (Wistar) [2]; 3 mg/kg i.p., 5-10 min)	Time spent in the lighted compartment (naive rats (Wistar) [2]; 10 mg/kg i.p., 0-5 min)	Time spent in the lighted compartment (naive rats (Wistar) [2]; 10 mg/kg i.p., 0-10 min)	Time spent in the lighted compartment (naive rats (Wistar) [2]; 10 mg/kg i.p., 5-10 min)	Percentage of pre-pulse inhibition, Average (naive rats (Wistar) [3]; 10 mg/kg i.p.)	Percentage of pre-pulse inhibition as a function of the intensity of the first pulse (naive rats (Wistar) [3]; [4])	Percentage of pre-pulse inhibition as a function of the intensity of the first pulse (naive rats (Wistar) [3]; [5])	Percentage of pre-pulse inhibition as a function of the intensity of the first pulse (naive rats (Wistar) [3]; [6])	other results
CC12CC3CC(C)(C1)CC(N)(C3)C2 [Memantine, memantine]	55.1 s	139.8	48.7 s	145.7	67.2 s	119.7	very significant (p<0.001) decrease	34.2 s	59.9 s	25.7 s	26.2 s	34.3 s	8.1 s	31.0 s	32.0 s	0.9 s	31%	19%	24%	36%	time spent in the lighted compartment compared with the control (naive rats (Wistar) [2]; memantine 1, 3, 10 mg/kg): no effect was observed; Percentage of pre-pulse inhibition as a function of the intensity of the first pulse (naive rats (Wistar) [3]; [7]): 44%; effect on PPI (schizophrenia-inducing effect) (naive rats (Wistar) [3]): induces an inhibition of the PPI effect
NC12CC3CC(C1)CC(CCF)(C3)C2	43.2 s	157.8	47.6 s	164.3	60.6 s	140.5	very significant (p<0.001) decrease	42.4 s	71.0 s	28.6 s	34.4 s	67.5 s	33.2 s	96.8 s	171.9 s	75.0 s	45%	27%	39%	51%	time spent in the lighted compartment compared with the control (naive rats (Wistar) [2]; 10 mg/kg, Student's t-test p<0.01): large and significant increase; Percentage of pre-pulse inhibition, Average (naive rats (Wistar) [3]; 5 mg/kg i.p.): 42%; Percentage of pre-pulse inhibition as a function of the intensity of the first pulse (naive rats (Wistar) [3]; 5 mg/kg i.p., first pulse 72 dB): 24%; Percentage of pre-pulse inhibition as a function of the intensity of the first pulse (naive rats (Wistar) [3]; 5 mg/kg i.p., first pulse 76 dB): 37%; Percentage of pre-pulse inhibition as a function of the intensity of the first pulse (naive rats (Wistar) [3]; 5 mg/kg i.p., first pulse 80 dB): 47%; Percentage of pre-pulse inhibition as a function of the intensity of the first pulse (naive rats (Wistar) [3]; 5 mg/kg i.p., first pulse 84 dB): 60%; Percentage of pre-pulse inhibition as a function of the intensity of the first pulse (naive rats (Wistar) [3]; [7]): 64%; Percentage of pre-pulse inhibition, Average (naive rats (Wistar) [3]; 20 mg/kg i.p.): 48%; Percentage of pre-pulse inhibition as a function of the intensity of the first pulse (naive rats (Wistar) [3]; 20 mg/kg i.p., first pulse 72 dB): 31%; Percentage of pre-pulse inhibition as a function of the intensity of the first pulse (naive rats (Wistar) [3]; 20 mg/kg i.p., first pulse 76 dB): 46%; Percentage of pre-pulse inhibition as a function of the intensity of the first pulse (naive rats (Wistar) [3]; 20 mg/kg i.p., first pulse 80 dB): 54%; Percentage of pre-pulse inhibition as a function of the intensity of the first pulse (naive rats (Wistar) [3]; 20 mg/kg i.p., first pulse 84 dB): 62%; effect on PPI (schizophrenia-inducing effect) (naive rats (Wistar) [3]): induces no effect
